# Experimental data reported in patent US5712274A, “Thienotriazolodiazepine compounds and their pharmaceutical use” (Yoshitomi Pharmaceutical Industries, Ltd., priority 1995, dated 1998).
# Read-outs that look alike come from different tables or passages of the source.
# Experiments:
# [1] = system: VCAM-1; assay: Inhibitory effect on TNF-α-induced expression of VCAM-1 in HUVECs; assay type: cell-based; conditions: Homo sapiens, HUVEC, read-out: Inhibitory effect (IC50) on CAM-1 expression
# Protocol: (§1) Inhibitory effect on expression of VCAM-1 and ELAM-1 in human umbilical vein-derived endothelial cells (HUVECs)
# (§2) HUVECs were suspended in 199 medium containing 20% FCS, 20 μg/ml endothelial cell growth factor derived from bovine brain, and 100 μg/ml heparin, plated into 96-well microculture plates coated with collagen, and cultured at 37° C. in 5% CO2. When cells were grown to confluence, the cells received tumour necrosis factor (TNF)-α (20 U/ml for VCAM-1 expression, 100 U/ml for ELAM-1 expression) and cultured for 5 hr. After the cells were washed once with 199 medium, mouse anti-human VCAM-1 monoclonal antibody (2 μg/ml) or rat anti-human ELAM-1 monoclonal antibody (2 μg/ml) was added, and the cells were incubated for 1 hr at room temperature. After the cells were washed twice, peroxidase-conjugated anti-mouse immunoglobulin antibody or anti-rat immunoglobulin antibody was added, and the cells were incubated for 1 hr at room temperature. After the cells were washed 3 times, 2,2'-azino-bis(3-ethylbenzothiazolone-6-sulfonic acid) was added. After the plates were stood for 15 min at room temperature, absorbance at 405 nm with a reference wave length of 490 nm was measured with a 96-well microplate reader and was regarded as a indicator of VCAM-1 or ELAM-1 expression.
# [2] = system: ELAM-1; assay: Inhibitory effect on TNF-α-induced expression of ELAM-1 in HUVECs; assay type: cell-based; conditions: Homo sapiens, HUVEC, read-out: Inhibitory effect (IC50) on ELAM-1 expression
# Protocol: as §1, §2
# [3] = system: thioglycollate (TG) medium-induced infiltration of leukocytes; assay: Effect on thioglycollate (TG) medium-induced infiltration of leukocytes; assay type: in vivo, BALB/c mice; conditions: TG medium 1 ml, day 4
# Protocol: Effect on thioglycollate (TG) medium-induced infiltration of leukocytes
# One ml of TG medium was injected into peritoneal cavity of BALB/c mice on day 0. On day 4, leukocytes infiltrating into the peritoneal cavity were collected with 3 ml of phosphatebuffered saline containing 0.02% EDTA and the density of leukocytes (cells/ml) was counted with an automatic blood cell counter. Total number of leukocytes (X) was calculated from the density of leukocytes (A) with the following formula.
# Test compounds were suspended in 0.5% hydroxypropylmethyl-cellulose solution and administered p.o. (0.1 ml/10 g body weight) on days 0 to 3.
# [4] = system: oxazolone-induced ear edema; assay: Effect on oxazolone-induced ear edema in mice; assay type: in vivo; conditions: sensitized mice, 24 hr after challenge
# Protocol: Effect on oxazolone-induced ear edema in mice.
# Mice were sensitized by applying 50 μl of oxazolone solution (50 mg/ml in acetone) to their shaved abdomen on day 0. On day 7, 5 μl of oxazolone solution was applied to each surface of the right ear. After 24 hr (day 8), the right and left ears were cut off with a puncher of 6 mm in diameter and weighed with an electronic reading balance. The difference in weight between the oxazolone-treated ear (right) and untreated ear (left) was taken to reflect the extent of ear edema. Test compounds were suspended in 0.5% hydroxypropylmethycellulose solution and administered p.o. (0.1 ml/10 g body weight) on days 0 to 4 (once a day) and day 7 (twice a day).
# [5] = system: glomerulonephritis; assay: Effect on glomerulonephritis in mice (anti-GBM antiserum); assay type: in vivo, female C57BL/6 mice; conditions: 12 days after anti-GBM antiserum, 0-5 points
# Protocol: Effect on glomerulonephritis in mice
# Rabbit immunoglobulin G solution (4 mg/ml in saline) was mixed with Freund's complete adjuvant at a ratio of 1:1 and the emulsion was prepared. The emulsion was injected into peritoneal cavity of female C57BL/6 mice (0.25 ml/mouse). After 5 days, rabbit anti-mouse glomerular basement membrane (GBM) antiserum obtained by the method of Nagai et al. (Japan. J. Pharmacol., 32, 1117, 1982) was administered i.v. (0.08 ml/mouse). […] Test compounds were suspended in 0.5% hydroxypropylmethylcellulose (HPMC) solution and administered p.o. (0.1 ml/10 g body weight) for 13 days beginning on the day of anti-GBM ant-serum injection.
# [6] = system: CD11b; assay: Effect on CD11b expression in human histiocytic leukemia cell line, U937 cells (PDB-induced); assay type: cell-based; conditions: U-937, 72 h, read-out: Inhibitory effect on CD11b expression (IC50)
# Protocol: Effect on CD11b expression human histiocytic leukemia cell line, U937 cells
# Effect on the expression of CD11b antigen, which is the α chain of an adhesion molecule, Mac-1 expressing on the surface of leukocytgic cells, was investigated. U937 cells were suspended in RPMI1640 medium containing 20% fetal calf serum (FCS), plated with phorbol 12,13-dibutyrate (PDB, 10 ng/ml) into 96-well filtration plates, and cultured for 3 days at 37° C. in 5% CO2. After the cells were washed once with RPMI1640 medium, rat anti-human CD11b antibody (2 μg/ml) was added to each well and the plates were incubated for 1 hr on ice. After the cell were washed twice, peroxidase-conjugated anti-rat immunoglobulin antibody (1 μg/ml) was added, and the cells were incubated for 1 hr on ice. After the cells were washed 3 times, substrate for peroxidase (o-phenylenediamine) was added. After the plates were stood for 15 min at room temperature, absorbance at 490 nm was measured with a 96-well microplate reader and was regarded as a indicator of CD11b antigen expression.
# [7] = system: lipopolysaccharide (LPS)-induced adhesion of leukocytes; assay: Effect on lipopolysaccharide (LPS)-induced adhesion of leukocytes; assay type: in vivo, BALB/c mice; conditions: 6 hr after LPS
# Excerpt: Effect on lipopolysaccharide (LPS)-induced adhesion of leukocytes
# It has been reported that, by the administration of LPS to mice, an adhesion molecule, Mac-1-dependent leukocyte adhesion is induced, the leukocytes infiltrate into lung, liver and so on, and in result the number of peripheral blood leukocytes reduces (Morisaki et al., Clin. Immunol. Immunopathol., 61, 365-375, 1991). The effect on LPS-induced leukocyte adhesion was investigated by taking the reduction of peripheral blood leukocytes as an indicator of leukocyte adhesion.
# LPS solution (50 ng/ml in saline, 0,5 ml/mouse) was injected into peritoneal cavity of BALB/c mice on day 0. Six hr after the LPS injection, the number of peripheral blood leukocytes was counted with an automatic blood cell counter. Test compounds were suspended in 0.5% hydroxypropylmethylcellulose solution and administered p.o. (0.1 ml/10 g body weight) on days -4 to 0.
# [8] = system: TNBS-induced colitis; assay: Effect on TNBS-induced colitis model in rats (intrarectal administration); assay type: in vivo, SD rats; conditions: 7 days
# Protocol: Effect on trinitrobenzenesufonec acid (TNBS)-induced colitis model in rats.
# Colitis was induced by intrarectal injection of TNBS solution (60 mg/ml in 50% EtOH, 500 μl/rat) to SD rats. Seven days later, rats were sacrificed, and large intestine (8 cm from anus) was cut off and weighed. Myeloperoxidase (MPO) activity in the intestinal tissue was measured as follows and taken as an indicator of leukocyte infiltration: the intestinal tissue was homogenized and a cycle of freeze-thawing of the tissue was repeated 3 times. The supernatant obtained by centrifugation was assayed for MPO activity with substrate for peroxidase (o-phenylenediamine). MPO activity in the supernatant was calculated with the commercial MPO as a standard. The increases in intestinal weight and MPO activity as described above were taken as indicators of colitis. Test compounds were suspended in 0.5% hydroxypropylmethylcellulose solution and administered intrarectally (o.2 ml/rat) for 5 days beginning on the day of TNBS injection.
# [9] = system: antigen induced Eosinophils accumulation into lungs; assay: Effect on antigen induced eosinophils accumulation into lungs in actively sensitized guinea pigs; assay type: in vivo, male Dunkin-Hartley guinea pigs; conditions: 30 mg/kg p.o., BALF 24 h after antigen exposure
# Protocol: Effect on antigen induced Eosinophils accumulation into lungs in actively sensitized guinea pigs
# Male Dunkin-Hartley guinea pigs (4W, Japan SLC, Inc.) were used throughout this study.
# Sensitized animals were orally administered (p.o.) with compound or solvent (0.5% hydroxymethylcellulose) 30 min. before final sensitization, 30 min. before antigen exposure and 4.5 h after antigen exposure.
# Egg albumin (EA, 10 μg) was added to AI(OH)3 (10 mg) in sterile physiological saline (0.5 ml) and mixed in a blender. This mixture was injected intraperitoneally into recipients. And after 14 days and 21 days, the procedure was repeated. Seven days after the final sensitization procedure, Mepyramine 10 mg/kg was injected intraperitoneally into the sensitized animals. After 30 min., the animals were exposed to aerosol of 1% EA in sterile physiological saline for 5 min.
# 24 h after antigen exposure, the animals were killed by exsanguination and tracheae were cannulated. And the lungs were lavaged three times with 10 ml of sterile physiological saline. Lavage fluid (BALF) was centrifuged (800 rpm for 10 min. at 4° C.) and the cell pellet was resuspended in 10 ml of sterile physilolgical saline and total cell numbers in BALF were counted in a hemocytometer (MEK 4200, Nihon-kohden, Ltd.). Differential cell counts were made from centrifuged preparations stained with May-Giemsa stain.
SMILES,Total number of leukocytes (mean ± S.D.) ([3]; 0.03 mg/kg/day p.o.),Total number of leukocytes (mean ± S.D.) ([3]; 0.1 mg/kg/day p.o.),Total number of leukocytes (mean ± S.D.) ([3]; 0.3 mg/kg/day p.o.),Increase in ear weight (mean ± S.D.) ([4]; 1 mg/kg p.o.) [mg],Score (mean ± S.D.) of protein level in urine ([5]; 1 mg/kg/day p.o.),Score (mean ± S.D.) of protein level in urine ([5]; 3 mg/kg/day p.o.),Intestinal weight (mean ± S.D.) ([8]; 0.01 mg/site intrarectally) [mg],MPO activity (mean ± S.D.) ([8]; 0.01 mg/site intrarectally),Intestinal weight (mean ± S.D.) ([8]; 0.1 mg/site intrarectally) [mg],MPO activity (mean ± S.D.) ([8]; 0.1 mg/site intrarectally) [U/ml],Intestinal weight (mean ± S.D.) ([8]; 1 mg/site intrarectally) [mg],MPO activity (mean ± S.D.) ([8]; 1 mg/site intrarectally) [U/ml],other results
"Cc1sc2c(c1C)C(c1ccc(Cl)cc1)=N[C@@H](CC(=O)Nc1cccnc1)c1nnc(C)n1-2.Cl [Example 5, (S)-N-(3-pyridyl)-4-(4-chlorophenyl)-2,3,9-trimethyl-6H-thieno[3,2-f][1,2,4]triazolo[4,3-a][1,4]diazepine-6-acetamide hydrochloride]",1221 ± 239 × 10^4,990 ± 327 × 10^4,596 ± 165 × 10^4,15.2 ± 0.8,3.44 ± 0.88,2.22 ± 0.44,,,,,,,IC50 ([1]; 5 h): 4.5 nM; IC50 ([2]; 5 h): 14 nM; Increase in ear weight (mean ± S.D.) ([4]; 3 mg/kg p.o.): 14.0 ± 0.6 mg; Increase in ear weight (mean ± S.D.) ([4]; 10 mg/kg p.o.): 13.3 ± 0.5 mg; IC50 [6]: 260 nM; Number of peripheral blood leukocytes (mean ± S.D.) ([7]; 1 mg/kg/day p.o.): 46 ± 8 × 100/μl; Number of peripheral blood leukocytes (mean ± S.D.) ([7]; 3 mg/kg/day p.o.): 69 ± 18 × 100/μl; Number of peripheral blood leukocytes (mean ± S.D.) ([7]; 10 mg/kg/day p.o.): 103 ± 16 × 100/μl
"Cc1sc2c(c1C)C(c1ccc(Cl)cc1)=N[C@@H](CC(=O)Nc1ccc(O)cc1)c1nnc(C)n1-2 [Example 3, (S)-N-(4-hydroxyphenyl)-4-(4-chlorophenyl)-2,3,9-trimethyl-6H-thieno[3,2-f][1,2,4]triazolo[4,3-a][1,4]diazepine-6-acetamide]",,,,,,,501.5 ± 78.3,0.716 ± 0.158 U/ml,472.0 ± 43.4,0.654 ± 0.109,460.8 ± 52.3,0.676 ± 0.172,
"Cc1sc2c(c1C)C(c1ccc(Cl)cc1)=N[C@@H](CC(=O)Nc1ccc(N)cc1)c1nnc(C)n1-2 [Example 4, (S)-N-(4-aminophenyl)-4-(4-chlorophenyl)-2,3,9-trimethyl-6H-thieno[3,2-f][1,2,4]triazolo[4,3-a][1,4]diazepine-6-acetamide]",,,,,,,490.8 ± 89.9,"0.703 ± 0,313 U/ml",488.1 ± 24.0,0.511 ± 0.103,511.8 ± 98.5,0.488 ± 0.103,
"Cc1sc2c(c1C)C(c1ccc(Cl)cc1)=N[C@@H](CC(=O)NCCO)c1nnc(C)n1-2 [Example 2, (S)-N-(2-hydroxyethyl)-4-(4-chlorophenyl)-2,3,9-trimethyl-6H-thieno[3,2-f][1,2,4]triazolo[4,3-a][1,4]diazepine-6-acetamide 1/4 hydrate]",1064 ± 359 × 10^4,594 ± 302 × 10^4,570 ± 203 × 10^4,14.2 ± 0.4,3.25 ± 0.16,2.44 ± 0.53,,,,,,,"IC50 ([1]; HUVECs, TNF-α 20 U/ml, 5 hr): 37 nM; IC50 ([2]; HUVECs, TNF-α 100 U/ml, 5 hr): 79 nM; Increase in ear weight (mean ± S.D.) ([4]; 0.3 mg/kg p.o.): 14.3 ± 1.5 mg; IC50 ([6]; U937 cells, PDB 10 ng/ml, 3 days): 150 nM; Number of eosinophils [9]: 11.8 ± 3.8 × 10^6"
